Source: patent publication US4871745A, “2- or 3-aryl substituted imidazo(1,2-A)pyridines and their use as antisecretory agents” (Ortho Pharmaceutical Corporation, priority 1988, dated 1989)

How the values were obtained:
[1] = molecular target: T1, calcium channel (nitrendipine binding) (Oryctolagus cuniculus, UniProt P15381); assay: Inhibition of 3H-nitrendipine binding (heart membranes), calcium channel blocking activity; set-up: species or system female New Zealand white rabbits; conditions: 3H-nitrendipine 0.05-0.50 nM; rabbit heart membranes; 90 min at 4° C.; pH 7.4; read-out: B: IC50 (inhibition of nitrendipine binding)
T1 construct: the heart was immediately removed, cleaned and chopped into small pieces; from tissue; host or cells: rabbit heart, crude membrane pellet (42,000×g)
Method: (§1) The calcium channel blocking activity of the above compounds was determined by measuring (A) the inhibition of calcium dependent smooth muscle contraction and (B) inhibition of nitrendipine binding as follows.
(B) The inhibition of nitrendipine binding was determined by following the procedures of Bolger et al., Biochem. Biophys. Res. Comm. 104, 1604 (1982) and Ehlert et al., Life Sciences 30, 2191 (1982). Basically, female New Zealand white rabbits (1-2 kg) were sacrificed by cervical dislocation, and the heart was immediately removed, cleaned and chopped into small pieces. The tissue was homogenized in 5× volume of 0.05M Hepes buffer, pH 7.4. The homogenate was centrifuged at 400×g for 10 minutes; the supernatant was recentrifuged at 42,000×g for 90 minutes. The resulting membrane pellet was resuspended (0.7 ml/g weight) in 0.05M Hepes, pH 7.4, and stored at -70° C. until used. Each tube of the binding assay contained ^3 H-nitrendipine (0.05-0.50 nM), buffer, membranes (0.10 ml), and test compound in a total volume of 1.0 ml. After 90 minutes at 4° C., the bound nitrendipine was separated from the unbound by filtration to Whatman GF/C fibers. After rinsing, the filters were dried and counted in a liquid scintillation counter.
Non-specific binding of ^3 H-nitrendipine (that amount bound in the presence of excess unlabelled nitrendipine) was subtracted from the total bound to obtain specifically bound radiolabeled nitrendipine. The amount of specifically bound nitrendipine in the presence of a test compound was compared to that amount bound in the absence of a compound. A percent displacement (or inhibition) was then obtained.

[2] = test system: quadriceps femoris muscle of one hind leg; assay: Local anesthetic activity: impaired ability of mice to grasp inverted screen after injection into quadriceps femoris muscle; format: in vivo, male albino overnight-fasted mice; conditions: Mus musculus, im, 5 min; overnight-fasted mice; 0.05 ml solution or suspension (w/v) injected into quadriceps femoris muscle of one hind leg; observed 5 min later; read-out: Concentration (in %) of Compound Causing Local Anesthetic Activity
Method: The local anesthetic activity of the above compounds was tested as follows.
The test compounds were dissolved or suspended in a 0.5% aqueous methylcellulose solution containing 0.4% (v/v) of Tween 80, The polyoxyethylene derivative of a sorbitan ester. Doses of up to 100 mg/kg were administered orally by gagvage tube to groups of three male albino overnight-fasted mice (18 to 24 g) which were observed intermittently for one hour. The mice were gently restrained and 0.05 ml of a 1% (w/v) solution or suspension of the test compound was injected into the quadriceps femoris muscle of one hind leg. Five minutes later, the mice were individually placed on a wire mesh screen. The wire mesh screen was then inverted. […] The response to the test compounds was compared to a similarly treated vehicle control group of mice.

gastric acid secretion = assay: Antisecretory activity: gastric acid secretion in pylorus-ligated rats; format: in vivo, male Charles River Sprague Dawley derived rats; conditions: Rattus norvegicus, intraduodenal or s.c., 4 h after ligation, acid output compared to control, read-out: % Acid Secreted
Method: The antisecretory activity of the above compounds was determined by measuring gastric acid secretion using pylorus ligation in a modification of the procedure of Shay et al., Gastroenterology 26, 906 (1954). Basically, male Charles River Sprague Dawley derived rats weighing 150-300 grams were deprived of food but not water for 18-24 hours prior to use. Water was withheld during the experiment, however. The rats were weighed, anesthesized with ether and the pylorus ligated according to the method of Shay et al., supra. Treatment or vehicle control was then administered intraduodenally (i.d.) or subcutaneously (s.c.). Rats were housed two/cage and sacrificed with CO2 four hours after ligation. The stomachs were removed, rinsed, and contents emptied into a graduated centrifuge tube. The tubes were centrifuged, the volume of gastric juice recorded, and any samples obviously contamined by feces, food or blood were eliminated. A 1 ml aliquot of gastric juice was titrated with 0.1N NaOH to a pH of 7.0-7.4. The volume of gastric juice secreted, the acid concentration, and the product of the volume times the concentration, i.e., the total amount of acid secreted, were measured.

[3] = test system: calcium dependent smooth muscle contraction (trachealis muscle tissue); assay: Inhibition of calcium dependent smooth muscle contraction (tracheal rings, KCl challenge); format: cell-based, dogs; conditions: Canis lupus familiaris, 10 μM test compound for 10 min, dog tracheal rings, 30 min, 37° C.
Method: as §1
(A) Trachea from dogs sacrificed by excess KCl injection were stored overnight at 4° C. in oxygenated Krebs-Henseleit buffer. Tracheal rings, one cartilage segment wide (5-10 mm) were cut starting from the bronchial end. After cutting the cartilage, the trachealis muscle tissue was suspended in oxygenated Krebs-Henseleit buffer at 37° C. in a 25 ml tissue bath. After a 60 minute equilibration period, the tissues were challenged with 10 μM carbachol. After five minutes, the tissues were rinsed and allowed to rest 50 minutes. The tissues were then challened with 50 mM KCl and, after 30 minutes, the contracts were quantitated. The tissues were then rinsed and re-equilibrated for 50 minutes. Test compounds were then added at 10 μM for 10 minutes, and the tissues were rechallenged with 40 mM KCl.
The percent inhibition of smooth muscle contraction was calculated from response data before and after drug treatment. [formula]

T1 sequence (P15381 whole entry, other chains not shown): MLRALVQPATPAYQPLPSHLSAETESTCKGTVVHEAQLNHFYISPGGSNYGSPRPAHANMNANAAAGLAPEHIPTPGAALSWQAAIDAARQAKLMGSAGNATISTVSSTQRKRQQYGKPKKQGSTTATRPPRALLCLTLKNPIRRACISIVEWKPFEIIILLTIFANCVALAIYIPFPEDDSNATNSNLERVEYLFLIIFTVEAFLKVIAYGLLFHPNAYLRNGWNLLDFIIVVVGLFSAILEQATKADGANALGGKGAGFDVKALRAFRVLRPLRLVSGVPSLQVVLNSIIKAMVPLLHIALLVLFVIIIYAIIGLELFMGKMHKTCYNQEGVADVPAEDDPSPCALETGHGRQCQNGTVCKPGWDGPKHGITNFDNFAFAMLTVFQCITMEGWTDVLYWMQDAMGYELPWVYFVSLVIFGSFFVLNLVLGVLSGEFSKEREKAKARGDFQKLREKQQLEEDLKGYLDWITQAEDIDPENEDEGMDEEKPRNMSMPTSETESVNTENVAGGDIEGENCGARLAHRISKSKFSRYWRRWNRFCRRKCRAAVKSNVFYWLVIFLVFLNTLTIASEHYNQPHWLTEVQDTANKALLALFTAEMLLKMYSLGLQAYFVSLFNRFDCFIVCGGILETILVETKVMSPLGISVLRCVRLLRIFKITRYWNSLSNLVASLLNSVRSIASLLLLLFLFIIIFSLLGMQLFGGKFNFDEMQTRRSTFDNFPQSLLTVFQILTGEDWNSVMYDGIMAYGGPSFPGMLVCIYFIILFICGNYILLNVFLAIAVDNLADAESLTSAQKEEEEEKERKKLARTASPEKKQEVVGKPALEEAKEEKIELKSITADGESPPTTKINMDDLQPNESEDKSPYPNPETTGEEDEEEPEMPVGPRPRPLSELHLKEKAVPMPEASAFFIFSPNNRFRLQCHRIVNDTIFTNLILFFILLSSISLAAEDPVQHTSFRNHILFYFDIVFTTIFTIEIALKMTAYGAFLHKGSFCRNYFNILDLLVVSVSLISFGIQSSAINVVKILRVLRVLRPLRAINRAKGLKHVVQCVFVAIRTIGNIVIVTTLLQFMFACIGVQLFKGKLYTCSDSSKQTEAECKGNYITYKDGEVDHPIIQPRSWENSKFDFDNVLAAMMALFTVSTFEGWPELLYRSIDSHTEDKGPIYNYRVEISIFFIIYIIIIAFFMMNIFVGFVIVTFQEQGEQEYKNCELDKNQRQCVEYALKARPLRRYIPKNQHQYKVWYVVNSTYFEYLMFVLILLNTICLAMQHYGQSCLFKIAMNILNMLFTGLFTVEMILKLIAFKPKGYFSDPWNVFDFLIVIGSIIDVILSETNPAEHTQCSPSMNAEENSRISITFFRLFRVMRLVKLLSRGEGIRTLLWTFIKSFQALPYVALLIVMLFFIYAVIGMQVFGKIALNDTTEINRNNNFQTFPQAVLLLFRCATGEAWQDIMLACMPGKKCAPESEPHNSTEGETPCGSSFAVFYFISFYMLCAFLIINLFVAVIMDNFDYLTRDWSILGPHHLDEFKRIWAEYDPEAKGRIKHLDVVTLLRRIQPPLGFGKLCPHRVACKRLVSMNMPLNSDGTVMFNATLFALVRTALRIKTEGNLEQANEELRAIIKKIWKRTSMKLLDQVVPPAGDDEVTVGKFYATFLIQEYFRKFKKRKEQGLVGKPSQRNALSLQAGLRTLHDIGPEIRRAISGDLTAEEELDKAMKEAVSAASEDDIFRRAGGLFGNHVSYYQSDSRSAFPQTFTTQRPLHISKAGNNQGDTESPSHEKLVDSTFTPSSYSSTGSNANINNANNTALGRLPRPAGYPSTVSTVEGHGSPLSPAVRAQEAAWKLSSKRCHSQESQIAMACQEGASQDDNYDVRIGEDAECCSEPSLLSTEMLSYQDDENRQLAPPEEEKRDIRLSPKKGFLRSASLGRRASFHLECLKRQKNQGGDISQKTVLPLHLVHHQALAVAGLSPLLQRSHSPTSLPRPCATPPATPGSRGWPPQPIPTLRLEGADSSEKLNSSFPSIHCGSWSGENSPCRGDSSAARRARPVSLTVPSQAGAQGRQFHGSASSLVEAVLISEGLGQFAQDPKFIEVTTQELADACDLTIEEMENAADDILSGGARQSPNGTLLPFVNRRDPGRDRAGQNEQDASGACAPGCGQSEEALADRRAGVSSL
T1 sequence (P13806 27-960 partner limits assumed, other chains not shown): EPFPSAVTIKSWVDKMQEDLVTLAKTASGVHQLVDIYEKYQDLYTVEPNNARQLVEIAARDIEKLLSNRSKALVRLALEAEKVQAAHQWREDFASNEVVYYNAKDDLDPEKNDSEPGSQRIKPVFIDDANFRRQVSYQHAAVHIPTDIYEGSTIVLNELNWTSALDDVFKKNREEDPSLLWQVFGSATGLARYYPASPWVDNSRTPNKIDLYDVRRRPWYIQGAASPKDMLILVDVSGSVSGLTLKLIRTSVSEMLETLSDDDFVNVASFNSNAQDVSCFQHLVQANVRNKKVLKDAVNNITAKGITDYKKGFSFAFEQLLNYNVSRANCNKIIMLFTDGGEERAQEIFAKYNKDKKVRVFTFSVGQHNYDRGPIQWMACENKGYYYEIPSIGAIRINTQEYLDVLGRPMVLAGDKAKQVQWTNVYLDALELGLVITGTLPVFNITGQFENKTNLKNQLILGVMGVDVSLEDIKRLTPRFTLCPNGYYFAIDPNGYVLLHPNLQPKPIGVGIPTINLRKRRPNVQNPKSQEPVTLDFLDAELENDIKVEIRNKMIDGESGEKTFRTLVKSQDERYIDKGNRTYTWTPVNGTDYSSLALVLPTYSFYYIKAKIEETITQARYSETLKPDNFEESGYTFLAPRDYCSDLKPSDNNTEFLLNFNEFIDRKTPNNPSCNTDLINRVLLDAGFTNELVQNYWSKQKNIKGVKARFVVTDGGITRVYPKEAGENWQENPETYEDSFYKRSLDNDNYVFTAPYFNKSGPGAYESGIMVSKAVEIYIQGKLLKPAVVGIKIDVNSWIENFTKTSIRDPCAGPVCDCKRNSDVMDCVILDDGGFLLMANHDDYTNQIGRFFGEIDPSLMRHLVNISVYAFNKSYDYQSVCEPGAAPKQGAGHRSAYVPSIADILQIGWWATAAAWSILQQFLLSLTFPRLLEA
T1 sequence (P13806 961-1106 partner limits assumed, other chains not shown): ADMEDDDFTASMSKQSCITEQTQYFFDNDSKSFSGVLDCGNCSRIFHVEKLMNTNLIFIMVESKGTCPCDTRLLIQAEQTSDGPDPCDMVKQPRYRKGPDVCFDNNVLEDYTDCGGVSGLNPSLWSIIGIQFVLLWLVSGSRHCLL

Row | SMILES | IC50 [1] [nM] | minimal effective concentration [2] [µg/mL] | change in vivo at 20 mg/kg (gastric acid secretion) [%] | inhibition at 10 µM [3] [%] | change in vivo at 40 mg/kg (gastric acid secretion; 40 mg/kg) [%]
1 | CCCCN(CCCC)CCCOc1ccc(C(=O)c2cn3cc(Br)ccc3n2)cc1 [Example 12] | 3000 | 10000 |  |  | 
2 | CCCCN(CCCC)CCCOc1ccc(-c2cn3ccc(C)cc3n2)cc1 [Example 4, 2-(4-Dibutylaminopropoxyphenyl)-7-methylimidazo[1,2-a]pyridine] | 6000 | 1000 |  | 46 | 
3 | CCCCN(CCCC)CCCOc1ccc(-c2cn3ccccc3n2)cc1 [Example 1, 2-(4-Dibutylaminopropoxyphenyl)imidazo[1,2-a]pyridine] | 2700 | 1000 | -41 | 54 | 
4 | CCCCN(CCCC)CCCOc1ccc(-c2cn3cc(Br)ccc3n2)cc1 [Example 3, 2-(4-Dibutylaminopropoxyphenyl)-6-bromoimidazo[1,2-a]pyridine] | 2500 | 10000 | -18 | 32 | 
5 | CCCCN(CCCC)CCCOc1ccc(-c2cn3cccc(O)c3n2)cc1 [Example 5, 2-(4-Dibutylaminopropoxyphenyl)-8-hydroxyimidazo[1,2-a]pyridine] |  | 10000 |  |  | 
6 | CCCCN(CCCC)CCCOc1ccc(-c2cn3cccc(OCc4ccccc4)c3n2)cc1 [Example 6, 2-(4-Dibutylaminopropoxyphenyl)-8-benzloxyimidazo[1,2-a]pyridine] | > 8000 | 1000 | -16 | 35 | 

Second part, led by results:

Row | IC50 [1] [nM] | SMILES | minimal effective concentration [2] [µg/mL] | change in vivo at 20 mg/kg (gastric acid secretion) [%] | inhibition at 10 µM [3] [%] | change in vivo at 40 mg/kg (gastric acid secretion; 40 mg/kg) [%]
7 | 600 | CCCCN(CCCC)CCCOc1ccc(C(=O)c2cn3cccc(C)c3n2)cc1 [Example 8, 2-(4-Dibutylaminopropoxybenzoyl)-8-methylimidazo[1,2-a]pyridine] | 10000 | -27 | 58 | 
8 | 2300 | CCCCN(CCCC)CCCOc1ccc(C(=O)c2cn3cccc(OCc4ccccc4)c3n2)cc1 [Example 11, 2-(4-Dibutylaminopropoxybenzoyl)-8-benzyloxyimidazo[1,2-]pyridine] | 1000 |  | 18 | 
9 | 1600 | CCCCN(CCCC)CCCOc1ccc(C(=O)c2cn3ccc(C)cc3n2)cc1 [Example 10, 2-(4-Dibutylaminopropoxybenzoyl)-7-methylimidazo[1,2-a]pyridine] | 10000 |  | 42 | 
10 | 200 | CCCCN(CCCC)CCCOc1ccc(C(=O)c2cnc3ccc(Br)cn23)cc1 [Example 14, 3-(4-Dibutylaminopropoxybenzoyl)-6-bromoimidazo[1,2-a]pyridine] | 1000 | -18 | 62 | 
11 | 600 | CCCCN(CCCC)CCCOc1ccc(-c2cn3cccc(C)c3n2)cc1 [Example 2, 2-(4-Dibutylaminopropoxyphenyl)-8-methylimidazo[1,2-a]pyridine] | 10 | -91 | 61 | 
12 | 1900 | CCCCN(CCCC)CCCOc1ccc(-c2nc3c(C)cccn3c2C)cc1 [Example 7, 2-(4-Dibutylaminopropoxyphenyl)-3,8-dimethylimidazo[1,2-a]pyridine] | 1000 | -54 | 27 | 
13 | 2200 | CCCCN(CCCC)CCCOc1ccc(C(=O)c2cn3c(C)cc(C)cc3n2)cc1 [Example 9, 2-(4-Dibutylaminopropoxybenzoyl)-5,7-dimethylimidazo[1,2-a]pyridine] | 10000 | -27 | 39 | 
14 | 530 | CCCCN(CCCC)CCCOc1ccc(C(=O)c2cnc3c(C)cccn23)cc1 [Example 13, 3-(4-Dibutylaminopropoxybenzoyl)-8-methylimidazo[1,2-a]pyridine] | 1000 |  | 56 | -49
